Measurements published in paper PMC7828447, “Design, Synthesis and Biological Evaluation of Arylpyridin-2-yl Guanidine Derivatives and Cyclic Mimetics as Novel MSK1 Inhibitors. An Application in an Asthma Model” (Molecules, 2021).
Structures can show the parent of a compound that is named as a salt. Where two headings read alike, the source gives them in different places.

Key:
[1] = system: IL-6 production; assay: Inhibition of IL-6 production (ELISA) in IL-1β-stimulated primary human lung fibroblasts; settings: for inhibition at 10 µM: read-out: Il-6 % Inhibition 10 µM; for inhibition at 30 µM: read-out: Il-6 % Inhibition 30 µM; for IC50: 0.3-30 µM, n = 4
Method: Primary human lung fibroblasts were cultured in DMEM/F-12 medium (Gibco Waltham, MA, USA) complemented with 10% fetal bovine serum (Gibco), penicillin (50 U/mL, Gibco), streptomycin (50 µg/mL, Gibco), L-glutamine (2 mM, Gibco), non-essential amino acids (0.1 mM, Gibco) and insulin (0.12 U/mL, Lilly, Indianapolis, IN, USA) Cells were used at passage 7.

[2] = target: T1, human synthetic MSK1 (14-438-K, Millipore) (Homo sapiens, UniProt O75582); assay: MSK1 enzymatic inhibition assay (Kinase-Glo luminescence); type: biochemical; settings: for inhibition at 1 µM: compound at 1 µM, read-out: MSK1 % Inhibition 1 µM; for inhibition at 1 µM / inhibition at 10 µM / IC50: ± Standard Deviation (n = 4); for inhibition at 10 µM: compound at 10 µM, read-out: MSK1 % Inhibition 10 µM; for IC50: 8 concentrations 0.03-100 µM, read-out: MSK1 IC50; for MSK1 inhibitory activity (in words): tested at 1 and 10 µM
T1 construct: purchased Millipore 14-438-K
Method: All results are summarized in Table 1, Table 2, Table 3, Table 4 and Table 5 and on Figure 4. […]
An orthogonal luminescence-based assay Kinase-Glo® (Promega, Madison, WI, USA) was used to validate the hits, quantifying the amount of the remaining ATP in the solution following the kinase reaction. Enzymatic reactions were performed up to 4h at room temperature in presence of 3 µM ATP. All compounds were tested in quadruplicates at 1 µM and 10 µM. […] Luminescence was measured with EnVision Plate Reader (Perkin Elmer).

[3] = system: Balb/C mice; assay: OVA-induced asthma model, inflammatory cell recruitment in BAL; type: in vivo; settings: vs vehicle-treated OVA mice
Method: We decided to use this compound in vivo together with our newly synthesized compound 49d.
Animal experimentation was conducted in accordance with the European Communities Council Directive of 24 November 1986 (86/609/EEC) and the French ministry with the approval of the Regional Ethics Committee for animal research at the Strasbourg University (Authorization number 2015080309399690). Nine week-old male Balb/c mice (Janvier) were sensitized on days 0 and 7 by i.p. injection of ovalbumin (OVA, 50 μg, grade V, Sigma-Aldrich) adsorbed on aluminium hydroxide (2 mg, Sigma-Aldrich) in PBS. Mice were challenged intranasally (i.n.) with OVA (10 μg) in 25 μL of saline on days 18–21. Control mice received i.n. administrations of saline alone. Mice received compound (10 or 30 mg/kg) in saline solution with DMSO 5% or vehicle (saline, DMSO 5%) administered i.p. 2 h before each saline or OVA challenge. Collection of the bronchoalveolar lavage (BAL) fluid was performed 24 h after the last OVA challenge. Cell counts were assessed by flow cytometry (LSRII® cytometer, BD bioscience). BAL cells were added with FCblock (5 μL, 553142, BD bioscience) in a black microplate, incubated for 20 min at room temperature. Then, marker antibodies were added: CD45-AlexaFluor700 (103128, BioLegend, San Diego, CA, USA), CD11b-APC-Cy7 (557657, BD bioscience), CD11c-FITC (557400, BD bioscience, Franklin Lakes, NJ, USA), Gr-1-Pe-eFluor610 (61-5931-82, eBioscience). Antibodies were incubated for 30 min before DAPI (5 μL, BD bioscience) addition, and flow cytometry was performed immediately. Eosinophils were selected by CD45^+, CD11b^+, CD11C^- and GR-1^- gating.

[4] = WST-1 cytotoxicity test (cell viability); settings: human, human pulmonary (lung) fibroblasts
Method: (§1) A WST1 (Roche) reagent assay was used to determine the cytotoxicity of compounds at 24 h of incubation. […] The absorbance was measured at 450 nm.

[5] = system: human pulmonary fibroblasts; assay: WST-1 cytotoxicity test (cell viability); settings: for cytotoxicity (in words): WST-1, concentrations up to 30 µM; for cytotoxicity at 30 µM (in words): compound at 30 µM
Method: as §1

[6] = Homo sapiens, Fibroblast, read-out: Il-6 IC50 (µM), IL-1β stimulation
[7] = 30 mg/kg i.p. 2 h before each OVA challenge
[8] = 10 mg/kg i.p. 2 h before each OVA challenge

T1 sequence (O75582 whole entry): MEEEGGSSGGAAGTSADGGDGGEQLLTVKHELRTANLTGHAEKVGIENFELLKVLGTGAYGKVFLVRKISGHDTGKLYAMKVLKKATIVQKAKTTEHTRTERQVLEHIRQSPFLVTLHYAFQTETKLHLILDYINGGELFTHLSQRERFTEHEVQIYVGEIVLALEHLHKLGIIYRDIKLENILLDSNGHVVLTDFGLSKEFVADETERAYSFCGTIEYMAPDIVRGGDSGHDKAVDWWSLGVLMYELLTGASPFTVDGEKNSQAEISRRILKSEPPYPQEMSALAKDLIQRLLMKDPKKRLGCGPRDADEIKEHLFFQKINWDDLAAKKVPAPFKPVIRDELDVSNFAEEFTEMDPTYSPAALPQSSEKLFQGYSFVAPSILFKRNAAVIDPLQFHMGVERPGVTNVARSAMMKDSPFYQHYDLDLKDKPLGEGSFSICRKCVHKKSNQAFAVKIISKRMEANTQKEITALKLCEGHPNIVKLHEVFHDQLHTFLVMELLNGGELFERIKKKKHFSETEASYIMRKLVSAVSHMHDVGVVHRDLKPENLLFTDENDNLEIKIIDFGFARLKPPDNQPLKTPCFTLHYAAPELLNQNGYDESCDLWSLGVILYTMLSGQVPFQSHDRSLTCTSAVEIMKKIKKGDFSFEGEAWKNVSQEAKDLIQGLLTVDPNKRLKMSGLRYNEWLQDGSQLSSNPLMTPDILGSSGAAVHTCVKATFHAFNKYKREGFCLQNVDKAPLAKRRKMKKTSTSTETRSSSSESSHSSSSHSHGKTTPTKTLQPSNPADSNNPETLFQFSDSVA

Row | inhibition at 1 µM [2] | inhibition at 10 µM [2] | IC50 [2] | melting point | SMILES | inhibition at 10 µM ([1]; Homo sapiens, Fibroblast) | inhibition at 30 µM ([1]; Homo sapiens, Fibroblast) | IC50 [1, 6] | viability at 24 h, 10 µM [4] | viability at 24 h, 30 µM [4] | also measured
1 | 6 ± 3% | 45 ± 9% | 5 ± 0.5 µM | – | N=C(N)Nc1cccc(-c2ccccc2F)n1 [Compound 1j, 1-[6-(2-Fluorophenyl)pyridin-2-yl] guanidiniumtrifluoroacetate] | 42 ± 4% | – | – | 100 ± 8% | 41 ± 9% | cytotoxicity (in words) [5]: cytotoxic; cytotoxicity at 30 µM (in words) [5]: cytotoxic
2 | -6 ± 2% | -1 ± 5% | – | 248 to 249 °C | N=C(N)Nc1cccc(-c2ccc(C(F)(F)F)cc2)n1.O=C(O)C(F)(F)F [Compound 1c, 1-[6-(4-Trifluoromethylphenyl)pyridin-2-yl] guanidinium trifluoroacetate] | – | – | – | – | – | MSK1 inhibitory activity (in words) [2]: inactive
3 | – | 1 ± 6% | – | 269 to 270 °C | N=C(N)Nc1cccc(-c2cc3ccccc3o2)n1.O=C(O)C(F)(F)F [Compound 1h, 1-[6-(1-Benzofuran-2-yl)pyridin-2-yl] guanidinium trifluoroacetate] | – | – | – | – | – | MSK1 inhibitory activity (in words) [2]: totally inactive
4 | 4 ± 4% | 42 ± 9% | 17.9 ± 3.9 µM | – | N=C(N)Nc1cccc(-c2ccccc2)n1 [Compound 1a, 1-(6-phenylpyridin-2-yl)guanidine] | 17 ± 7% | 60 ± 4% | 16.3 ± 6.1 µM | 122 ± 14% | 103 ± 5% | cytotoxicity (in words) [5]: non-toxic
5 | 23 ± 6% | 84 ± 4% | 0.9 ± 0.1 µM | – | N=C(N)Nc1cccc(-c2cc(Cl)ccc2Cl)n1 [Compound 1q, 1-[6-(2,5-Dichlorophenyl)pyridin-2-yl] guanidiniumtrifluoroacetate] | – | – | – | 31 ± 19% | 13 ± 1% | cytotoxicity (in words) [5]: cytotoxic
6 | 7 ± 3% | 71 ± 13% | 2.3 ± 0.3 µM | 190 to 191 °C | N=C(N)Nc1cccc(-c2cccc(Cl)c2Cl)n1.O=C(O)C(F)(F)F [Compound 1o, 1-[6-(2,3-Dichlorophenyl)pyridin-2-yl] guanidinium trifluoroacetate] | – | – | – | – | – | –
7 | – | 33 ± 8% | > 30 µM | 219 to 221 °C | N=C(N)Nc1cccc(-c2ccoc2)n1.O=C(O)C(F)(F)F [Compound 1g, 1-[6-(Furan-3-yl)pyridin-2-yl] guanidinium trifluoroacetate] | – | – | – | – | – | –
8 | 4 ± 2% | 38 ± 9% | 8.1 ± 1.2 µM | 157 to 158 °C | N=C(N)Nc1cccc(-c2ccccc2C(F)(F)F)n1.O=C(O)C(F)(F)F [Compound 1m, 1-[6-(2-Trifluoromethylphenyl)pyridin-2-yl] guanidinium trifluoroacetate] | – | – | – | – | – | –

Further lines, the compound ahead of its results:

Row | SMILES | inhibition at 1 µM [2] | inhibition at 10 µM [2] | IC50 [2] | melting point | inhibition at 10 µM ([1]; Homo sapiens, Fibroblast) | inhibition at 30 µM ([1]; Homo sapiens, Fibroblast) | IC50 [1, 6] | viability at 24 h, 10 µM [4] | viability at 24 h, 30 µM [4] | also measured
9 | O=S(=O)(c1cccc2cnccc12)N1CCCNCC1 [Fasudil, fasudil, reference compound] | 50 ± 10% | 82 ± 10% | – | – | 38 ± 6% | 81 ± 6% | 8.5 ± 5.1 µM | – | – | –
10 | O=C1NCCc2[nH]c(-c3ccncc3)cc21 [PHA767491, reference compound] | 72 ± 5% | 94 ± 4% | – | – | 97 ± 1% | 98 ± 2% | 1 ± 0.1 µM | 95 ± 9% | 87 ± 7% | decrease of B cells infiltration in BAL [3, 7]: 68 ± 7%; decrease of eosinophil infiltration in BAL [3, 7]: 57 ± 7%; decrease of total cell infiltration in BAL [3, 7]: 51 ± 6%
11 | NC1=Nc2cccc(-c3ccccc3)c2CN1 [Compound 37a] | -19 ± 1% | 44 ± 1% | 15.8 ± 3.2 µM | – | 18 ± 7% | 23 ± 6% | > 30 µM | 122 ± 14% | 103 ± 5% | IC50 ([1]; read-out: Il-6 IC50, IL-1β stimulation): > 30 µM
12 | Br.COc1ccc(-c2cccc3[nH]c(N)nc23)cc1 [Compound 49c, 4-(4-Methoxyphenyl)-1H-benzo[d]imidazol-2-amine Hydrobromide] | -2 ± 6% | 25 ± 5% | – | 218 to 220 °C | – | – | – | – | – | –
13 | Br.NC1=Nc2cccc(-c3cccc(Cl)c3)c2CN1 [Compound 37d, 5-(3-Chlorophenyl)-3,4-dihydroquinazolin-2-amine Hydrobromide] | -5 ± 4% | 10 ± 7% | – | 228 to 230 °C | – | – | – | – | – | –
14 | Br.COc1ccccc1-c1cccc2c1CNC(N)=N2 [Compound 37g, 5-(2-Methoxyphenyl)-3,4-dihydroquinazolin-2-amine Hydrobromide] | -14 ± 3% | -5 ± 1% | – | 226 to 229 °C | – | – | – | – | – | –
15 | O=S(=O)(NCCNC/C=C/c1ccc(Br)cc1)c1cccc2cnccc12 [Compound H89, H89, reference compound] | 80 ± 8% | 93 ± 10% | 0.25 ± 0.06 µM | – | 38 ± 5% | 96 ± 1% | 10.5 ± 5.1 µM | – | – | –
16 | Nc1nc2c(-c3ccccc3)cccc2[nH]1 [Compound 49a, 4-Phenyl-1H-benzo[d]imidazol-2-amine hydrobromide] | 5 ± 3% | 46 ± 6% | 3.6 ± 0.5 µM | – | 12 ± 4% | 22 ± 1% | > 30 µM | 93 ± 17% | 91 ± 15% | –
17 | Br.NC1=Nc2cccc(-c3ccccc3Cl)c2CN1 [Compound 37f, 5-(2-Chlorophenyl)-3,4-dihydroquinazolin-2-amine Hydrobromide] | 0% | 38 ± 4% | 16.4 ± 4 µM | 178 to 179 °C | 17 ± 5% | – | – | 100 ± 8% | 41 ± 9% | cytotoxicity at 30 µM (in words) [5]: cytotoxic
18 | Br.Nc1nc2c(-c3cc(Cl)ccc3Cl)cccc2[nH]1 [Compound 49f, 4-(2,5-Dichlorophenyl)-1H-benzo[d]imidazol-2-amine Hydrobromide] | 6 ± 3% | 61 ± 5% | 6.8 ± 0.8 µM | 202 to 205 °C | – | – | – | – | – | –
19 | Br.Nc1nc2c(-c3ccccc3Cl)cccc2[nH]1 [Compound 49d, 4-(2-Chlorophenyl)-1H-benzo[d]imidazol-2-amine Hydrobromide] | 21 ± 5% | 71 ± 7% | 1.6 ± 0.1 µM | – | 39 ± 15% | 57 ± 2% | – | 85 ± 13% | 76 ± 12% | inhibition of B cell infiltration in BAL [3, 8]: 47 ± 1%; inhibition of eosinophil infiltration in BAL [3, 8]: 39 ± 3%; inhibition of total cell infiltration in BAL [3, 8]: 33 ± 3%; fold more potent MSK1 inhibitor compared to the parent compound ([2]; versus parent compound 1a): 10 fold; cytotoxicity (in words) [5]: non-cytotoxic
